The numbers were not newly measured in PMC10338470, “Phase 1 study of GSK3368715, a type I PRMT inhibitor, in patients with advanced solid tumors” (British Journal of Cancer, 2023), which cites them from elsewhere.

The subject of this data set is adenoid cystic carcinoma. Further details: method as in doi:10.1016/j.annonc.2020.08.651. To be noted: patients with adenoid cystic carcinoma ref [18]; cited from earlier work.

With `Nc1nc2cc(CC[C@H]3C[C@@H](n4ccc5c(N)ncnc54)[C@H](O)[C@@H]3O)ccc2cc1Br` [JNJ64619178], the Partial response rate is on record as 13%.
